Data on 4 compounds can be found in EP2548557A1, “Reserpine to treat cognitive faults of the central nervous system” (Dr. Loges + Co. GmbH, priority 2011, dated 2013).

In data set [1] the test system is metabotrope Gruppe II Rezeptoren. Description: Hippocampus slice preparation: suppression of the reserpine effect by a glutamate receptor antagonist (metabotropic group II). To be noted: co-superfusion of antagonist with Reserpin; single and multiple stimuli (Abb. 5, Abb. 6). Type of data set: cell-based, Ratte. An excerpt:
(§1) Wirkungen von Reserpin auf die Erregbarkeit der Pyramidenzellen wurden im Hippokampus-Schnittpräparat der Ratte bestimmt. Die Analyse der Wirkungen erfolgte auf zwei Ebenen. Zunächst wurde anhand der Applikation von Einzelreizen die normale Erregbarkeit überprüft und anschließend nach einer sog. "Theta-burst-Stimulation" die Auswirkungen auf die Langzeitpotenzierung gemessen. Im nächsten Schritt wurde versucht, die Wirkung von Reserpin mit Hilfe von verschiedenen Rezeptor-spezifischen Glutamat Antagonisten zu unterdrücken.
(§2) Desweiteren wurde die Erregbarkeit der Pyramidenzellen in der Ausgangslage durch Superfusion mit einem Glutamat Rezeptor Antagonisten verändert. In der Folge wurde dann gleichzeitig Reserpin mit den verschiedenen Antagonisten zusammen superfundiert, um eine antagonistische Wirkung zu erkennen.
(§3) Dieselbe Versuchsanordnung wurde noch einmal genutzt, um in Gegenwart verschiedenster Glutamat Rezeptor Antagonisten Hinweise für eine Interaktion zwischen Reserpin und einem der Glutamat-Rezeptoren (GluR5 Kainate steht dabei für den ionotropen GluR5 Kainate-Rezeptor, Glu NMDA - für ionotrope NMDA-Rezeptoren, Glu AMPA - für ionotrope AMPA-Rezeptoren, und Glu II - für metabotrope Gruppe II Rezeptoren) zu erhalten (Abb. 5 und Abb.6).
(§4) Es wurden vier Antagonisten getestet. Dabei steht UB 301 für den Kainate-Rezeptor-Antagonisten UBP 301, CAS-Nr. 569371-10-4, der Formel [drawing 2] […]

Data set [2] relates to Pyramidenzellen im Hippokampus-Schnittpräparat. To be noted: literature description (Dimpfel 1995) used as comparison; cited from earlier work.
For data set [3], the system named is ionotrope AMPA-Rezeptoren. Description: Hippocampus slice preparation: suppression of the reserpine effect by a glutamate receptor antagonist (AMPA). It counts as cell-based, Ratte. Conditions: co-superfusion of antagonist with Reserpin; multiple stimuli.
Excerpt: as §1, §2, §3, §4

A further data set relates to Fischer-344 Ratten. Kind of data set: Tele-Stereo-EEG: changes of EEG frequencies (spectral power) after oral administration. It counts as in vivo, Ratte. As for the experimental part:
Die Veränderungen der EEG-Frequenzen wurde nach oraler Gabe von Lactosemonohydrat (Kontrolle/Vehikel) bzw. Verdünnungen von Reserpin in Lactosemonohydrat entsprechend 0,01, 0,02 oder 0,04 µg Reserpin/kg Körpergewicht) bestimmt.
Die Untersuchungen wurden analog der durch W. Dimpfel beschriebenen Methode (Dimpfel W Preclinical data base of pharmaco-specific rat EEG fingerprints (Tele-Stereo-EEG). Eur J Med Res (2003) 8: 199-207; auf dieses Dokument wird vollinhaltlich bezug genommen) folgendermaßen durchgeführt:
Zwölf männlichen erwachsenen Fischer-344 Ratten (Tag-Nacht konvertiert) wurden im Alter von 6 Monaten 4 bipolar konzentrische Elektroden zusammen mit einem Mikrostecker auf einer gemeinsamen Basisplatte implantiert. Der Stecker diente der Aufnahme eines 4-Kanal-Senders zur telemetrischen Übertragung der aus frontalem Kortex, Hippokampus, Striatum und Formatio Reticularis abgeleiteten Feldpotentiale. Die Signale wurden auf einem Computer System (Software "EEG-Analyse", Betriebssystem OS Science, Laborrechner "LabTeam" der Firma MediSyst, Linden, DE) in Echtzeit einer Fast-FourierTransformation unterworfen und die Leistungsdichtespektren jeweils über 60 Minuten gemittelt. Die Unterteilung der Spektren in 6 verschiedene Frequenzbereiche erlaubte die Erfassung pharmako-spezifischer Veränderungen in Bezug auf die jeweils vor Applikation gemessenen Vorwerte innerhalb dieser Frequenzbänder.
Zum Applikationsprotokoll der Substanzen: die Substanzen wurden oral 45 Minuten nach Beginn der Messungen (Vorwert) appliziert. Fünf Minuten später wurden die Messungen wieder gestartet, mindestens über die nächsten 5 Stunden kontinuierlich analysiert und in 60-minütigen Perioden zusammengefasst. Die Testsubstanz wurde in einer Dosierung von 0,01, 0,02 und 0,04 µg/kg appliziert. Die experimentelle Serie wurde mit der Applikation von Lactosemonohydrat (Kontrolle), die zu keiner auffälligen Änderung führte, begonnen (oberste Zeile in Abb. 1).
Der statistische Vergleich der Versuche zu den Ergebnissen, die nach Gabe des Vehikels gemessen wurde, erfolgte mit Hilfe des statistischen Tests nach Wilcoxon, Mann und Whitney auf der Basis der Veränderungen innerhalb der einzelnen Frequenzbänder in allen Hirnregionen als Variablen.

For data set [4], the system named is Pyramidenzellen im Hippokampus-Schnittpräparat. Kind of data set: Population spike of pyramidal cells and long-term potentiation in hippocampus slice preparation in vitro. Type of data set: cell-based, Ratte. Conditions: 0,025-0,1 µg/Liter Reserpin, n=4 slices. An excerpt:
Zunächst wurde anhand der Applikation von Einzelreizen die normale Erregbarkeit überprüft und anschließend nach einer sog. "Theta-burst-Stimulation" die Auswirkungen auf die Langzeitpotenzierung gemessen.
Das Experiment selbst wurde in einer sog. "Base Unit" mit Haas Top" (Firma Medical Systems Corp., USA) bei 35 Grad Celsius durchgeführt. Der mit Hilfe peristaltischer Pumpen (Infusomat B. Braun Melsungen AG) superfundierte Hippokampus-Schnitt lag auf einem Stück Gaze. Eingeleitetes Carbogen hielt die erforderliche Sauerstoffzufuhr der Lösung aufrecht. Die Durchflussgeschwindigkeit betrug 200 ml/h.
Dabei wurde der Schnitt zunächst mit Kontrolllösung superfundiert. […] Jeder Schnitt wurde jeweils nur zu einem Experiment benutzt.
Die Ableitung der evozierten Antwort erfolgte in 10-minütigem Abstand extrazellulär mit einer gezogenen Glaskapillare (Elektrodenpuller, Rhema Labortechnik, DE). Das Antwortsignal wurde verstärkt (Verstärker "LMI", List Electronics, Darmstadt, DE) mit einem Laborrechnersystem Labteam (Software NeuroTool, MediSyst GmbH, Linden DE) analog digital gewandelt (Auflösung 12 Bit) und ausgewertet. Nach Auffinden eines geeigneten Signals (Amplitudenhöhe etwa 1 mV) wurde die Amplitudenhöhe des Populationsspikes (SAP=Summenaktionspotential; Popspike) als Ausgangsgröße festgelegt. […]

Regarding `NC1(C(=O)O)CCc2cc(P(=O)(O)O)ccc21` (racemic) [RS-Apica, (RS)-1-Amino-5-phosphono-indan-1-carbonsäure], the “Unterdrückung der Wirkung von Reserpin durch Antagonist” value in data set [1] was “besonders ausgeprägt unterdrücken”.

With `CC12CC3CC(C)(C1)CC(N)(C3)C2` [Memantin], in data set [2], the “Langzeit-Potenzierung (LTP) bei multipler elektrischer Reizung” value is on record as “Steigerung der LTP”.

In the case of `NS(=O)(=O)c1cccc2c1c([N+](=O)[O-])cc1[nH]c(=O)c(=O)[nH]c12` [NBQX], the “Unterdrückung der Wirkung von Reserpin durch Antagonist” value in data set [3] was “auch eine Unterdrückung”.

In the case of `COC(=O)[C@H]1[C@H]2C[C@@H]3c4[nH]c5cc(OC)ccc5c4CCN3C[C@H]2C[C@@H](OC(=O)c2cc(OC)c(OC)c(OC)c2)[C@@H]1OC` [Reserpin, (1S,2R,3R,4aS,13bR,14aS)-2,11-Dimethoxy-3-(3,4,5-trimethoxybenzoyloxy)-1,2,3,4,4a,5,7,8,13,13b,14,14a-dodecahydroindolo[2',3':3,4]pyrido[1,2-b]isochinolin-1-carbonsäuremethylester], the “Frequenzmuster in der Diskriminanzanalyse im Vergleich zu Referenzmedikamenten” value in the data set on Fischer-344 Ratten (0.02 µg/kg, 35 - 65 min, linear discriminant analysis, 4 brain regions x 6 frequency bands, compared with Memantin, Rasagiline, Methylphenidat) is on record as “korreliert in auffälliger Weise mit den Mustern”. Besides, the “Steigerung der Motilität der Tiere” value with Fischer-344 Ratten (oral, 0,01, 0,02 and 0,04 µg/kg) is on record as “nicht beobachtet”. Moreover, in the data set on Fischer-344 Ratten (oral, 0,01, 0,02 and 0,04 µg/kg, frequency band most affected), the “alpha2 Wellen (spektrale Leistung)” value is recorded as “Besonders stark waren die alpha2 Wellen betroffen”. Besides, the “spektrale Leistung in allen Frequenzbereichen (EEG)” value in the data set with Fischer-344 Ratten (oral, 0,01, 0,02 and 0,04 µg/kg, frontal cortex, hippocampus, striatum, formatio reticularis, vs. vehicle Lactosemonohydrat, n=12) is on record as “dosis-abhängigen Unterdrückung der spektralen Leistung in allen Frequenzbereichen”. Also, in data set [4] (single stimuli of Schaffer collaterals), the “Amplitude des Populationsspikes bei Einzelreizung” value is recorded as “Konzentrations-abhängige Zunahme”. The “Auslösung der Langzeitpotenzierung durch TBS” value in data set [4] (theta-burst stimulation) is given as “Konzentrations-abhängig verbessert”.
